Experimental data: ChEMBL document CHEMBL3112408, “1,2,3-triazole-, arylamino- and thio-substituted 1,4-naphthoquinones: potent antitumor activity, electrochemical aspects, and bioisosteric replacement of C-ring-modified lapachones” (Bioorg Med Chem, 2014)

Key:
[1] = system: MDA-MB-435; assay: Cytotoxicity against human MDA-MB-435 cells assessed as cell viability after 72 hrs by MTT assay; assay type: functional, cell-based; settings: MDA-MB-435, 72 h
[2] = system: DU-145; assay: Cytotoxicity against human DU145 cells assessed as cell viability after 72 hrs by MTT assay; assay type: functional, cell-based; settings: DU-145, 72 h
[3] = system: MX1; assay: Cytotoxicity against human MX1 cells assessed as cell viability after 72 hrs by MTT assay; assay type: functional, cell-based; settings: MX1, 72 h
[4] = system: HL-60; assay: Cytotoxicity against human HL60 cells assessed as cell viability after 72 hrs by MTT assay; assay type: functional, cell-based; settings: HL-60, 72 h
[5] = Cytotoxicity against human HCT8 cells assessed as cell viability after 72 hrs by MTT assay; assay type: functional, cell-based; settings: HCT-8, 72 h
[6] = system: HCT-116; assay: Cytotoxicity against human HCT116 cells assessed as cell viability after 72 hrs by MTT assay; assay type: functional, cell-based; settings: HCT-116, 72 h
[7] = system: SF-295; assay: Cytotoxicity against human SF295 cells assessed as cell viability after 72 hrs by MTT assay; assay type: functional, cell-based; settings: SF-295, 72 h
[8] = Cytotoxicity against human Hs578T cells assessed as cell viability after 72 hrs by MTT assay; assay type: functional, cell-based; settings: Hs-578T
[9] = system: PC-3; assay: Cytotoxicity against human PC3 cells assessed as cell viability after 72 hrs by MTT assay; assay type: functional, cell-based; settings: PC-3, 72 h
[10] = system: PBMC; assay: Cytotoxicity against human PBMC assessed as cell viability after 72 hrs by MTT assay; assay type: cell-based
[11] = system: MCF7; assay: Cytotoxicity against human MCF7 cells assessed as cell viability after 72 hrs by MTT assay; assay type: functional, cell-based; settings: MCF7, 72 h
[12] = system: OVCAR-8; assay: Cytotoxicity against human OVCAR8 cells assessed as cell viability after 72 hrs by MTT assay; assay type: functional, cell-based; settings: OVCAR-8, 72 h
[13] = system: L929; assay: Cytotoxicity against mouse L929 cells assessed as cell viability after 72 hrs by MTT assay; assay type: ADME, cell-based; settings: L929, 72 h
[14] = system: V79; assay: Cytotoxicity against chinese hamster V79 cells assessed as cell viability after 72 hrs by MTT assay; assay type: cell-based; settings: Cricetulus griseus, V79, 72 h

SMILES	IC50 [1] [µM]	IC50 [2] [µM]	IC50 [3] [µM]	IC50 [4] [µM]	IC50 [5] [µM]	IC50 [6] [µM]	IC50 [7] [µM]	IC50 [8] [µM]	IC50 [9] [µM]	IC50 [10] [µM]	IC50 [11] [µM]	IC50 [12] [µM]	IC50 [13] [µM]	IC50 [14] [µM]
O=C1C=C(NCc2cn(CCN3C(=O)c4ccccc4C3=O)nn2)C(=O)c2ccccc21	> 11	> 11	> 11	> 11	> 11	> 11	> 11	> 11	> 11	> 11	> 11	> 11	> 11	> 11
O=C1C(Cl)=C(NCc2cn(CN3C(=O)c4ccccc4C3=O)nn2)C(=O)c2ccccc21	> 11	> 11	> 11	> 11	> 11	> 11	> 11	> 11	> 11	> 11	> 11	> 11	> 11	> 11
CC1(C)CC(Nc2ccc(Cl)cc2)C2=C(O1)C(=O)c1ccccc1C2=O (configuration not stated)	1	1.17	0.76	0.98	0.65	0.54	0.71	0.6	1	0.52	0.98	1.47	1.85	1.5
CC1(C)CC(Sc2ccccc2)C2=C(O1)C(=O)c1ccccc1C2=O (configuration not stated)		> 14	11.8	2.91	> 14	> 14	> 14	4.61	> 14	> 14	13.3	> 14	> 14	> 14
CC1(C)CC(Nc2ccc(I)cc2)C2=C(O1)C(=O)c1ccccc1C2=O (configuration not stated)	9.01	10.8	10.7	6.88	> 10	> 10	9.19	9.17	9.06	3.22	7.53	> 10	2.31	2.55
O=C1C(Br)=C(NCc2cn(CCN3C(=O)c4ccccc4C3=O)nn2)C(=O)c2ccccc21	> 9	> 9	> 9	> 9	> 9	> 9	> 9	> 9	> 9	> 9	> 9	> 9	> 9	> 9
COc1cccc2c1C(=O)c1c(O)c3c(c(O)c1C2=O)C[C@@](O)(C(=O)CO)C[C@@H]3O[C@H]1C[C@H](N)[C@H](O)[C@H](C)O1 [DOXORUBICIN]		0.53	0.5		0.13			0.37				0.35		0.24
O=C1C(Cl)=C(NCc2cn(CCCCN3C(=O)c4ccccc4C3=O)nn2)C(=O)c2ccccc21	> 10	> 10	> 10	> 10	> 10	> 10	> 10	> 10	> 10	> 10	> 10	> 10	> 10	> 10
CC1(C)CC(Nc2cccc([N+](=O)[O-])c2)C2=C(O1)C(=O)c1ccccc1C2=O (configuration not stated)	1.45			1.51	6.42	8.48	1.51			4.84			4.62	3.86
O=C1C=C(n2cc(CNC3=C(Cl)C(=O)c4ccccc4C3=O)nn2)C(=O)c2ccccc21	3.33	4.92	4.02	3.42	7.08	6.65	5.55	4.68	5.42	10.2	7.76	6.02	6.83	7.1
CC(=O)OC[C@H]1OC(n2cc(CNC3=C(Br)C(=O)c4ccccc4C3=O)nn2)[C@H](OC(C)=O)[C@@H](OC(C)=O)[C@@H]1OC(C)=O (some centres not stated)	2.67	4.07	3.59	1.19	2.2	4.39	2.83	3.68	> 7	4.76	2.91	2.8	3.66	3.59
O=C1C=C(n2cc(CNC3=C(Br)C(=O)c4ccccc4C3=O)nn2)C(=O)c2ccccc21	> 10	> 10	> 10	> 10	> 10	> 10	> 10	> 10	> 10	> 10	> 10	> 10	> 10	> 10
O=C1C=C(NCc2cn(-c3cccc([N+](=O)[O-])c3)nn2)C(=O)c2ccccc21	> 13	> 13	> 13	> 13	> 13	> 13	> 13	> 13	> 13	> 13	> 13	> 13	> 13	> 13
CC1(C)CC(Nc2cccc(F)c2)C2=C(O1)C(=O)c1ccccc1C2=O (configuration not stated)		8.76	7.11					7.68	7.77	4.44	6.92		3.24	2.68
CC(=O)OC[C@H]1OC(n2cc(CNC3=CC(=O)c4ccccc4C3=O)nn2)[C@H](OC(C)=O)[C@@H](OC(C)=O)[C@@H]1OC(C)=O (single isomer, unassigned)	> 8	> 8	> 8	> 8	> 8	> 8	> 8	> 8	> 8	> 8	> 8	> 8	> 8	> 8
CC1(C)OC2=C(C(=O)c3ccccc3C2=O)C1Sc1ccccc1 (configuration not stated)		6.98	6.45	0.47	2.25	3.29	9.15	3.26	6.09	> 14.8	7.43	6.09	13.8	> 14.8
